US20160166532A1, “CARNITINE PALMITOYLTRANSFERASE 1 INHIBITORS FOR INHIBITION OF PATHOLOGICAL ANGIOGENESIS” (VIB VZW, priority 2013, published 2016)
Where two headings read alike, the source gives them in different places.

Key:
[1] = tested on: EC spheroids; test: In vitro EC spheroid sprouting assay; type: cell-based
Source text: (§1) In angiogenic EC monolayers, CPT1a knock down (KD) reduced EC proliferation by 40% as measured by ^3H thymidine incorporation (see FIG. 2). Furthermore, CPT1a KD EC were found more frequently in the G0/G1 phase of the cell cycle. EC migration on the other hand was not affected as measured by scratch wound assay and modified Boyden chamber even when proliferation was blocked using mitomycin C (see FIG. 3). To study the effect of CPT1a KD on vessel sprouting, an in vitro EC spheroid sprouting assay was employed. In this model, EC are cultured in suspension to form spheroids in hanging drops, embedded in a collagen I matrix and subsequently stimulated with growth factors to allow sprouts to be formed. In this model, a tip cell with filopodia leads the sprout while the stalk cells trail behind and proliferate to elongate the sprout. […] To further investigate this observation, a mosaic spheroid model was employed to assess tip cell competition. Here, 50% WT^RED and 50% WT^GFP cells are mixed and, when the spheroids have sprouted, which one is at the tip is determined. In this model, tip cell position can be determined via migration and/or proliferation. In case of a WT/WT mixture, 50% green and 50% red cells are at the tip. However, when 50% WT^RED cells are mixed with 50% CPT1a^KD/GFP cells, less green cells were present at the tip. This effect was abrogated when spheroids were treated with mitomycin C.

[2] = Tolerability in etomoxir-treated pups (body weight, heart H&E staining); type: in vivo, mice
[3] = tested on: choroidal neovascularization (CNV) in male C57BL/6 mice; test: Laser-induced choroidal neovascularization (CNV) model; type: in vivo; details: 35 mg/kg i.p. daily, two weeks, vs vehicle
Source text: The protein extravasation and hemorrhage associated with choroidal neovascularization (CNV) are primary causes of severe vision loss in retinal diseases such as age-related macular degeneration (ARMD). In ARMD the normal barrier function of Bruch's membrane is compromised, and CNV can develop, either under the retinal pigment epithelium (RPE) or photoreceptor outer segments. The choroidal neovascularization model serves as a reliable disease model for macular degeneration. Choroidal neovascularization (CNV) is induced in mice by laser burn. Laser burn (400 mW) is performed with Alcon PUREPOINT® equipment. CNV is measured by investigators masked to treatment. Eyes are enucleated after retrobulbar perfusion with FITC-dextran (HMW) and flat mounted. The CNV area, total lesion area, and their ratio are analyzed using Zeiss Axio Imager Z1 microscope with macros (KS300 image analysis software) on FITC-perfused (200 μL; 25 mg/mL; 10 minutes) flat mounts. The intraocular administration of siRNAs directed against CPT1a or the use of chemical inhibitors against CPT1a, is carried out, prior to or shortly after the induction of the laser burn, in the above-described murine model for age-related macular degeneration. […]

[4] = Palmitate uptake and incorporation in organs; type: in vivo, mice; details: pups
[5] = tested on: endothelial cells (ECs); test: 3H palmitate oxidation assay (fatty acid oxidation, 3H-9,10-palmitic acid tracer); type: cell-based
Source text: (§2) CPT1 enzymes are rate limiting for fatty acid oxidation and, of the three isoforms, CPTla is the most abundant in ECs. To explore the functional relevance of CPT1a in ECs, its expression was compared in quiescent versus angiogenic EC monolayers. Strikingly, CPT1a RNA and protein levels were increased during contact inhibition—an in vitro model of quiescence—when compared to proliferating/migrating ECs. […] To correlate these expression levels to functional relevance, fatty acid oxidation was measured using a ^3H-9,10-palmitic acid tracer. […] To confirm that fatty acid oxidation in ECs is primarily CPT1a driven, its expression was blocked using a shRNA directed against CPT1a. The shRNA sequence used was 5′-[…] […]-3′ (SEQ ID NO:1).
(§3) Even more, using notch signaling as a model of quiescence, the notch-induced increase in FAO was abrogated upon CPT1a KD.

[6] = molecular target: T1, CPT1a (Homo sapiens, UniProt P50416); test: CPT1a protein levels after shRNA knock down in ECs; type: cell-based
T1 construct: of the three isoforms, CPTla is the most abundant in ECs; endogenous in cells; host or cells: endothelial cells (ECs)
T1 sequence (P50416 1-773): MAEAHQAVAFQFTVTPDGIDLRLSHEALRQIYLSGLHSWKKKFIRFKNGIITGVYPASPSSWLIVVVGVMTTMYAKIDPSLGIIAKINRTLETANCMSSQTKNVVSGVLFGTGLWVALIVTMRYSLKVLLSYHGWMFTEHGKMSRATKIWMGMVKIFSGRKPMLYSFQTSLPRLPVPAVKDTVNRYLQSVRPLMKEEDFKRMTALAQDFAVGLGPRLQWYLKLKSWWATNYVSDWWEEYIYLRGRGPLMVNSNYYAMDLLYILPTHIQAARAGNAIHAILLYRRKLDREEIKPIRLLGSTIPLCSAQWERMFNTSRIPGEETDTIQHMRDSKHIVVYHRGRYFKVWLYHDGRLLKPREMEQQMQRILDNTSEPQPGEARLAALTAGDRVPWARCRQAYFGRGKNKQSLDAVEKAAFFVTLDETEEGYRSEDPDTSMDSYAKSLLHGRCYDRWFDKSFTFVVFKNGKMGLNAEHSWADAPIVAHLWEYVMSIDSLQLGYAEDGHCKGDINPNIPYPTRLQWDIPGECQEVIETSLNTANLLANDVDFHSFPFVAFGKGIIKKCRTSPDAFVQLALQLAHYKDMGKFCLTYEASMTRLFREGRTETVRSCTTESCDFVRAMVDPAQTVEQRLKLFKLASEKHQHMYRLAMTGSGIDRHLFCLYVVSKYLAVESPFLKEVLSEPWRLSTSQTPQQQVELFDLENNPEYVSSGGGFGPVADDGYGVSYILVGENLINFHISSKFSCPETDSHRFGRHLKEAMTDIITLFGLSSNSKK
Source text: as §2, §3

[7] = tested on: ECs; test: Scratch wound assay and modified Boyden chamber (EC migration); type: cell-based; details: scratch wound assay, modified Boyden chamber
Source text: as §1, with “This effect was abrogated when spheroids were treated with mitomycin C.” left out

[8] = tested on: ECs; test: Energy charge, ATP levels and AMPK phosphorylation in ECs; type: cell-based
Source text: Next, how fatty acid oxidation could exert its proliferation-dependent effects on vessel sprouting was questioned. Through fueling the TCA with […] molecules of acetyl-COA, 1 palmitate can generate much more ATP via oxidative phosphorylation compared to 1 glucose. However, as was shown previously, angiogenic ECs rely primarily on glycolysis for ATP production. Nevertheless, it was desired to rule out that the CPT1a-induced proliferation defect was caused by ATP depletion. […] One would also expect that whenever cells are in ATP distress, they would up-regulate a major ATP-producing pathway. […] Furthermore, no signs of energy distress were observed, as shown by AMPK-p, and no induction of autophagy was observed as measured by LC3.

[9] = tested on: angiogenic EC monolayers; test: 3H thymidine incorporation assay (EC proliferation); type: cell-based
Source text: as §1, with “This effect was abrogated when spheroids were treated with mitomycin C.” left out

[10] = tested on: ECs; test: Intracellular H2O2 levels in ECs; type: cell-based
Source text: Proliferation requires many building blocks such as protein, RNA, DNA, . . . to allow duplication of one cell into two daughter cells. Up until now, the role of mitochondria in ECs was thought to be for signaling purposes and not so much for biomass production, as ECs are highly glycolytic. […] FAO can fuel the TCA cycle with […] molecules of acetyl COA, thereby providing plenty of intermediates for biomass as well as producing NADPH that can be used for anti-oxidant defense or lipid synthesis. […] However, this increase in ROS could not explain the proliferation defect as no DNA damage checkpoint was activated in these cells as measured by ATM-P, p53 and p21 levels. […] Therefore, it was hypothesized that blocking FAO would reduce TCA intermediates needed for biomass production. Even more, using ^13C palmitate, it was shown that CPT1a KD cells incorporate less 13C label in TCA intermediates and in biomass.

With `CC(=O)N[C@@H](CS)C(=O)O` [NAC] as the compound, how does the “rescue of reduced sprouting upon CPT1a silencing in quiescent spheroids” value ([1]; NICD overexpression model of quiescence) read?
The value was “did rescue the phenotype”.

Which “rescue of reduced sprouting of CPT1a knock down spheroids” value ([1]; 20 mM supplementation) does the source give for `CC(=O)O` [acetate] here?
The value was “rescued”.

Which “defects in the heart (H&E staining)” value [2] does the source give for `CCOC(=O)[C@@]1(CCCCCCOc2ccc(Cl)cc2)CO1` [etomoxir] here?
The value was “did not cause any defects in the heart”.

And the “reduction of neovascularization area” value [3]?
The value was “less than 50%”.

What about the “pathological neovascular area (in words)” value ([3]; p<0.05) of the same compound?
The value was “reduced the pathological neovascular area”.

What about the “14C palmitate uptake in organs” value [4] of the same compound?
Its value is “significantly reduced”.

And the “incorporation of 13C palmitate in TCA intermediates in organs” value [4]?
Its value is “significantly reduced”.

What does the source list for “shCPT1a: shRNA directed against CPT1a, SEQ ID NO:1: 5'-CCGGGCCATGAAGCTCTTAGACAAACTCGAGTTTGTCTAAGAGCTTCATGGCTTTTTG-3'”?
fatty acid oxidation [5]: reduced fatty acid oxidation; fatty acid oxidation ([5]; listed as shRNA directed against CPT1a): significantly reduced; CPT1a protein levels [6]: nearly undetectable levels; EC migration [7]: no differences in migration; EC migration ([7]; listed as CPT1a KD): not affected; ATP distress (Western blot for AMPK phosphorylation) [8]: does not show any ATP distress; energy charge [8]: did not affect; vessel sprouting of EC spheroids ([1]; collagen I matrix, growth factor stimulated): fewer and shorter sprouts; proliferation (in words) [9]: reduced proliferation; reduction of EC proliferation ([9]; angiogenic EC monolayers): 40%; increase in intracellular H2O2 levels [10]: 40%
